Laboratory results from US11248024B2, “Noxa-derived, cell death-inducing peptide eMTD” (INDUSTRY-ACADEMIC COOPERATION FOUNDATION, CHOSUN UNIVERSITY, priority 2019, dated 2022).
Ends that are not written are not given here. FAM = fluorescein

Legend:
[1] = Two-step assay, damage on lipid membrane of liposomes (TbCl3/DPA fluorescence); type: biochemical; conditions: for Relative Fluorescence Intensity: liposomes, excitation 276 nm, read at 490 nm
Experimental: In brief, DOPS, DOPE, and DOPC (Avanti Polar Lipids) were dissolved at the ratio of 2:4:3 in chloroform, followed by vaporization. The residue was again dissolved at the concentration of 2 mg/mL in TbCl3 buffer (15 mM TbCl3, 50 mM sodium citrate, 20 mM HEPES, 150 mM NaCl, pH 7.4). The lipid mixture was extruded by Mini extruder (Avanti Polar Lipids) with a 400 nm to prepare liposomes which were washed with washing buffer (150 mM NaCl, 20 mM HEPES, pH 7.4) and then resuspended in an assay buffer (50 DPA, […], 20 mM HEPES, pH 7.4). The suspension was plated into 96-well plates and treated with 0, 10, or 25 μM of eMTD (SEQ ID NO: 1) or eMTDΔ4 (SEQ ID NO: 2). After stimulation with 276 nm laser, fluorescence was read at 490 nm.

HeLa = test: MTS assay, relative cell viability, HeLa; type: cell-based, human; conditions: for Viability (%): one hour treatment, Table 3
Experimental: Individual cell lines (HeLa, CT26, and B16F10) were purchased from the Korean Cell Line Bank. Dulbecco's modified Eagle's medium (DMEM), trypsin-EDTA, fetal bovine serum (FBS), and Hank's balanced salt solution (HBSS) were products from Gibco (Thermo Fisher).
Each of the cell lines was cultured in DMEM supplemented with 10% FBS in an incubator maintained at 37° C. and 5% 002.
For use in assaying the peptides eMTD (SEQ ID NO: 1) and eMTDΔ4 (SEQ ID NO: 2) synthesized in Example 1 for activity of inducing cell death, the cell line HeLa was grown to about 90% confluency in 96-well plates. The cells were washed once with HBSS buffer before treatment with the peptides of the present disclosure eMTD (SEQ ID NO: 1) and eMTDΔ4 (SEQ ID NO: 2) at concentrations of 0, 20, and 40 for one hour. Thereafter, the cells were incubated with an MTS assay agent (Promega) for one hour, followed by reading absorbance to calculate relative viability of cells.
Examination was made to see whether the peptide has the activity of inducing cell death in other cancer cell lines. In this regard, the cancer cell lines HeLa, CT26, and B16F10 were treated with eMTDΔ4 (SEQ ID NO: 2) at concentrations of 0, 20, and 40 μM.

[2] = system: mitochondria isolated from livers of BalB/C mice; test: Mitochondrial swelling, absorbance at 540 nm / TEM; type: biochemical; conditions: peptides 25 μM, Ca2+ 200 μM, CsA 20 μM
Experimental: First, livers excised from 6-week-old BalB/C mice were immersed in buffer (250 mM mannitol, […], 5 mM HEPES, pH 7.4, 0.1 mM PMSF and 4 rotenone) and completely homogenized using a Teflon Potter-Elvehjem grinder (Sigma). The ground liver was centrifuged at 1000×g for 10 min at 4° C. and the supernatants were centrifuged at 10,000×g for 10 min at 4° C. The pellets thus obtained were suspended in a regeneration buffer (250 mM sucrose, 10 mM HEPES, pH 7.4, 5 mM sodium succinate, 2 mM potassium phosphate, 0.1 mM PMSF, 25 μM EGTA, and 4 rotenone).
The mitochondria thus obtained were treated with 25 μM of eMTD (SEQ ID NO: 1) or eMTDΔ4 (SEQ ID NO: 2), followed by reading absorbance at 540 nm to determine mitochondrial swelling.

HeLa cells [3] = test: Intracellular localization of FAM-labelled peptide, confocal images (TOM20, DAPI); type: cell-based, human; conditions: 5 and 10 min incubation, fixed
Experimental: In order to investigate the source that allowed the intracellular calcium influx observed in Example 4, examination was made of the site at which the peptide eMTDΔ4 (SEQ ID NO: 2) acts. In this regard, the fluorescent tracer fluorescein was labeled to the C-terminal of the peptide eMTDΔ4 (SEQ ID NO: 2) (eMTDΔ4 (SEQ ID NO: 2)-FAM). Then, HeLa cells grown on Lab-Tek chamber glass were incubated with eMTDΔ4 (SEQ ID NO: 2)-FAM for 5 and 10 min before fixation with 1% paraformaldehyde.
Mitochondria were visualized using an antibody to TOM20, which localizes to the outer membrane of the mitochondrion because MTD (SEQ ID NO: 3) is known to migrate to mitochondria, while nuclei were visualized using DAPI.

HeLa cells [4] = test: Time-lapse confocal microscopy of peptide entry, Mito-DsRed2 transfected cells; type: cell-based, human; conditions: images every five seconds for 10 min
Experimental: In order to investigate the temporal order and cause relation between the introduction of eMTDΔ4 (SEQ ID NO: 2) and the damage of mitochondrial membrane and cell membrane, mitochondria were visualized by transfecting Mito-DsRed2 into HeLa cells one day before the experiment. Thereafter, eMTDΔ4 (SEQ ID NO: 2)-FAM was applied to the HeLa cells images of which were then taken every five seconds for 10 min under a confocal microscope.

Molecule | liposome lipid membrane damage (in words) ([1]; FIGS. 10A to 10C and Table 6) | Relative Fluorescence Intensity ([1]; 10 μM) | Relative Fluorescence Intensity ([1]; 25 μM) | Viability (%) (HeLa; 20 μM) | Viability (%) (HeLa; 40 μM) | cell death activity (in words) (HeLa; FIG. 1 and Table 3) | Mitochondrial swelling, relative absorbance at 540 nm ([2]; Minute 0) | Mitochondrial swelling, relative absorbance at 540 nm ([2]; Minute 10) | Mitochondrial swelling, relative absorbance at 540 nm ([2]; Minute 20) | Mitochondrial swelling, relative absorbance at 540 nm ([2]; Minute 30) | Mitochondrial swelling, relative absorbance at 540 nm ([2]; Minute 40) | Mitochondrial swelling, relative absorbance at 540 nm ([2]; Minute 50) | Mitochondrial swelling, relative absorbance at 540 nm ([2]; Minute 60) | intracellular localization (HeLa cells [3]) | mitochondrial morphology (HeLa cells [3]) | entry of peptide into cells (HeLa cells [4])
KLNFRQKLLNLISKLFCSGT [eMTD] | higher fluorescence intensity was detected | 27% | 55% | 61% | 63% | potent cell death activity | 100% | 86% | 78% | 71% | 68% | 68% | 67% |  |  | 
MPGKKARKNAQPSPARAPAELEVECATQLRRFGDKLNFRQKLLNLISKLFCSGT (cysteines drawn unpaired) [fl-Noxa, reference compound] |  |  |  | 101% | 106% |  |  |  |  |  |  |  |  |  |  | 
eMTDΔ4-FAM: fluorescent tracer fluorescein labeled to the C-terminal of the peptide eMTDΔ4 (KLNFRQKLLNLISKLF-{FAM}) |  |  |  |  |  |  |  |  |  |  |  |  |  | consistent with the visualized positions of mitochondria | mitochondrial fragmentation was observed | diffused into the cytosol through the cell membrane bubbles
[Ca+2] [Ca, reference compound] |  |  |  |  |  |  | 100% | 77% | 75% | 73% | 72% | 70% | 70% |  |  | 
